Test results reported in patent US12162858B2, “Quinoline derivatives as inhibitors of AXL/MER RTK and CSF1R” (QURIENT CO., LTD., priority 2018, dated 2024).

What was measured:
Assay type in all cases: cell-based
Axl (Ba/F3 cells) = target: T1, Axl (Ba/F3 cells) (Homo sapiens, UniProt P30530); assay: BaF3 viability assay, Axl-dependent cells; conditions: read-out: Cellular Axl activity by Ba/F3 assay (IC50)
T1 sequence (P30530 1-894): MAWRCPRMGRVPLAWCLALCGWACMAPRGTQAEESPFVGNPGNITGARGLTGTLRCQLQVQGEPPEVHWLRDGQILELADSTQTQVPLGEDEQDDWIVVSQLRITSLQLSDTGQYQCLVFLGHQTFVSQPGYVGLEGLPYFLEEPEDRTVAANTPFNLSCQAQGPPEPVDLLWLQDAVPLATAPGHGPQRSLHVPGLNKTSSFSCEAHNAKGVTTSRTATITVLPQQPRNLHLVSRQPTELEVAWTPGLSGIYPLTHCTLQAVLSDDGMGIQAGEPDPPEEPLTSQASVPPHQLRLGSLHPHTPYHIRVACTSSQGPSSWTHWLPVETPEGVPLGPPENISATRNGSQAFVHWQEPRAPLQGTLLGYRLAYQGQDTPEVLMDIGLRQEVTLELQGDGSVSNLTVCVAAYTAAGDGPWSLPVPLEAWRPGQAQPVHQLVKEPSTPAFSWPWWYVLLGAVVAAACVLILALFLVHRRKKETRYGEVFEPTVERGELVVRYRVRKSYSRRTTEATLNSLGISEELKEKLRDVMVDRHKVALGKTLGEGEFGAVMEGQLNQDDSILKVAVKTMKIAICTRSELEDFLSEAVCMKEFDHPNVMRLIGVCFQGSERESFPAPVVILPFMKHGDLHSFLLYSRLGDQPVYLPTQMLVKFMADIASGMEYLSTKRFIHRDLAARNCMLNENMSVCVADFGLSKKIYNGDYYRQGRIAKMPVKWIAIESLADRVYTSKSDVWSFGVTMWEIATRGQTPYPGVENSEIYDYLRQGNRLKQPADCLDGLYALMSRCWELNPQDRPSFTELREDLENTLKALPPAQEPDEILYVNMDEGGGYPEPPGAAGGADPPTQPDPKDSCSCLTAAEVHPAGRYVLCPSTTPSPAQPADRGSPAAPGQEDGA
Source text: (§1) In this system, IL-3-dependent Ba/F3 cells are modified to express an activated recombinant kinase (in the present case Axl, Mer and CSF1R). Following removal of IL-3, the modified cells are dependent on the activity of the recombinant kinase for survival and proliferation. Inhibition of such kinase(s) through test compounds reduces survival and proliferation of the cells.
(§2) Cell lines were maintained in growth media (GM) consisting of RPMI 1640 supplemented with 10% FBS. Cells in logarithmic-phase growth were harvested and 5,000 cells were distributed into each well of a 384-well plate in 50 μl GM. Parental cells (or experimental assays where specified) were further supplemented with 2 ng/ml IL-3 to support cell growth and survival. Fifty nanoliters of the indicated reference standard or experimental compound were added to appropriate wells (in duplicate) and the cells were cultured for 48 h at 37° C./5% CO2. Viability was determined by adding 10 μl Cell Titer Glo and measuring luminescence, which is reported as relative light units (RLU) measured in counts per second. The following calculations and formulas are used for data analysis using GraphPad Prism software: The curve fitting was made using the Dose response curves-Inhibition.

CSF1R (Ba/F3 cells) = CSF1R (Ba/F3 cells) (Homo sapiens, UniProt P07333); assay: BaF3 viability assay, CSF1R-dependent cells; conditions: read-out: Cellular CSF1R activity by Ba/F3 assay (IC50)
Source text: as §1, §2

Mer (Ba/F3 cells) = target: T2, Mer (Ba/F3 cells) (Homo sapiens, UniProt Q12866); assay: BaF3 viability assay, Mer-dependent cells; conditions: read-out: Cellular Mer activity by Ba/F3 assay (IC50)
T2 sequence (Q12866 1-999): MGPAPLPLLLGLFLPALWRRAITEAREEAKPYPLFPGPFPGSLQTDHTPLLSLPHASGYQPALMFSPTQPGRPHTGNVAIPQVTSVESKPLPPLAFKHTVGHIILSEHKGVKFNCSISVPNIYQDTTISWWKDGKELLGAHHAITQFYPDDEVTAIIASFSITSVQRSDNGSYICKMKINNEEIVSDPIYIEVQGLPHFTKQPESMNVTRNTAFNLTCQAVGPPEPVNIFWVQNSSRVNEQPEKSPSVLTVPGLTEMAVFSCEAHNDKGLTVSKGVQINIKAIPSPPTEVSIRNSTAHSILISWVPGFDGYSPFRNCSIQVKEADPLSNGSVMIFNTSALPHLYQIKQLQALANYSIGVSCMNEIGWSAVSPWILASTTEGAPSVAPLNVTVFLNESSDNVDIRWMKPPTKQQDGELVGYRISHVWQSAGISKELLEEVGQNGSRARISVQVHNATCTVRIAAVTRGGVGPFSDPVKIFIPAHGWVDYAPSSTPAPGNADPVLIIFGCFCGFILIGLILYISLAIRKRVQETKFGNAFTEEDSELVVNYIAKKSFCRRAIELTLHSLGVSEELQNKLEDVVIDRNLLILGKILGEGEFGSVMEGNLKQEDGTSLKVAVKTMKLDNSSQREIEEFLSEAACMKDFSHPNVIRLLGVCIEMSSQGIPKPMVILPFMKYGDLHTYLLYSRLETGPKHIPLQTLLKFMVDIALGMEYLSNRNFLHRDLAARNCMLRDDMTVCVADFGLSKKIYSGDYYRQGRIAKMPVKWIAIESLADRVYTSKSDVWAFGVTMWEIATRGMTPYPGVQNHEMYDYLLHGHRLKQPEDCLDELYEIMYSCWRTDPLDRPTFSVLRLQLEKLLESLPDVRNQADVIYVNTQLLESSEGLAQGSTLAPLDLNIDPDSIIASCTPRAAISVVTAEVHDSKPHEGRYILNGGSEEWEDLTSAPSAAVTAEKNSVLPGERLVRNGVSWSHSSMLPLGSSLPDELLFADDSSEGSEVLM
Source text: as §1, §2

Measured: GI50

CSF1R (Ba/F3 cells), sequence (P07333 whole entry, change not shown): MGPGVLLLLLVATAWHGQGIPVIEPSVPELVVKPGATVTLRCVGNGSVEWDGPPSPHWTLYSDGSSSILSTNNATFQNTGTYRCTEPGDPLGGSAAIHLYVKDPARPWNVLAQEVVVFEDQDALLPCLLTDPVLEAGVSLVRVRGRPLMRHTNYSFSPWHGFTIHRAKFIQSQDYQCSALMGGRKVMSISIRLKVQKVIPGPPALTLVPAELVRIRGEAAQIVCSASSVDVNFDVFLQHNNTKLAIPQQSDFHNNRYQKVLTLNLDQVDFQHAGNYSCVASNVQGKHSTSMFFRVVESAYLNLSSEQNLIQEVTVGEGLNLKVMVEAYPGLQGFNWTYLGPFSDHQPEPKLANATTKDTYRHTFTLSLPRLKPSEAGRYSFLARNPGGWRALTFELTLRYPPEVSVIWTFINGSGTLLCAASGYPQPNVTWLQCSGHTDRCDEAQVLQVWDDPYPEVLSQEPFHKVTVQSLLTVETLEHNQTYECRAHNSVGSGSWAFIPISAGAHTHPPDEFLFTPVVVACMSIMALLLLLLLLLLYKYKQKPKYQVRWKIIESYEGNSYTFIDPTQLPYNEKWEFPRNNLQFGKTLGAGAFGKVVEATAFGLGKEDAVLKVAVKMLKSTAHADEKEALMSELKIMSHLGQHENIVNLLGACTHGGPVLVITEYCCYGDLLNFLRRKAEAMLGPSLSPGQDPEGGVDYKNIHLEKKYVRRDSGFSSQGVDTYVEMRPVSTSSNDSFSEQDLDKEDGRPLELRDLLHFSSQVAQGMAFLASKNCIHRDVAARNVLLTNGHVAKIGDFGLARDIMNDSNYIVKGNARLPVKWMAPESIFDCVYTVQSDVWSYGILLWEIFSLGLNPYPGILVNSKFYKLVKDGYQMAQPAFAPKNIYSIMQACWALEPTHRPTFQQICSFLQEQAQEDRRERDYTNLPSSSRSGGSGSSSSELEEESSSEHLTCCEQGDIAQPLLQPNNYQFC

COc1cc2nccc(Oc3ccc(NC(=O)c4nn(C5CC5)cc4OCC(F)(F)F)nc3)c2cc1OC [Compound 5]
< 1000 nM: Axl (Ba/F3 cells) | CSF1R (Ba/F3 cells) | Mer (Ba/F3 cells)
